Each structure is given as a SMILES string.

Data set [1] concerns the target HIV integrase (Human immunodeficiency virus type 1 group M subtype B, UniProt P04585). As to the kind of experiment: HIV integrase inhibitory activity assay (immunoplate, substrate DNA / target DNA, OD 405 nm). Conditions: read-out: Integrase inhibitory activity (IC50, ng/ml) (converted). In kind it is biochemical. The procedure: The HIV integrase inhibitory activity was examined based on an assay method shown below.
(1) Preparation of DNA Solution
According to the same method as the method described in Test Example 1 of WO 2004/024693, a substrate DNA solution (2 pmol/μl) and a target DNA solution (5 pmol/μl) were prepared. […] Each sequence of a substrate DNA and a target DNA is as described in the same Test Example.
(2) Measurement of Inhibition Rate (IC50 Value)
Streptavidin (manufactured by Vector Laboratories) was dissolved in a 0. 1M carbonate buffer (composition: 90 mM Na2CO3, 10 mM NaHCO3 )to a concentration of 40 μg/ml. Each 50 μl of this solution was added to a well of an immunoplate (manufactured by NUNC), and this was allowed to stand at 4° C. overnight to perform adsorption. Then, each well was washed with, a phosphate buffer (composition: 13.7 mM NaCl, 0.27 mM KCl, 0.43 mM. Na2HPO4, 0.14 mM KH2PO4) two times, 300 μl of a phosphate buffer containing 1% skim milk was added, and blocking was performed for 30 minutes. […]
Each plate was incubated at 30° C. for 10 minutes, and the reaction solution was discarded, followed by washing with a phosphate buffer two times. […] Inhibition rate (%)=100[1−{(C abs.−NC abs.)/(PC abs.−NC abs.)}] • C abs.; absorbance of well of compound • NC abs.: absorbance of NC • PC abs.: absorbance of PC

In the case of `O=C(NCc1ccc(F)cc1)c1[nH]cc(C(=O)NCc2ccc(F)cc2)c(=O)c1O`, the melting point was 279 to 280 °C.
As for `COC(=O)c1[nH]cc(C(=O)NCc2ccc(F)cc2)c(=O)c1O` [Compound A-1a, Methyl 5-(4-fluorobenzylcarbamoyl)-3-hydroxy-4-oxo-1,4-dihydropyridine-2-carboxylate], in data set [1], the IC50 is 0.02 µM.
Consider `O=C(O)c1[nH]cc(C(=O)NCc2ccc(F)cc2)c(=O)c1O` [Compound A-3], for which, in data set [1], the IC50 is 0.0101 µM.

As usually defined, the melting point is the temperature of the solid-liquid transition.

Source of the values: patent US7550463B2, “Carbamoylpyridone derivatives having inhibitory activity against HIV integrase” (Shionogi & Co., Ltd., priority 2004, dated 2009).
